Results: patent US11578061B2, “Inhibitors of LRRK2 kinase” (Halia Therapeutics, Inc., priority 2021, dated 2023)

Molecular target: recombinant human LRRK2 (catalytic domain only [amino acids 970-2527], GST-tagged) (Homo sapiens (Human), UniProt Q5S007)
Assay: LRRK2 Enzymatic Assay
Type: biochemical
Conditions: LRRKtide substrate, [32P]-ATP
Experimental: LRRKtide substrate (peptide sequence RLGRDKYKTLRQIRQ, derived from human ezrin [amino acids 561-573], moesin [amino acids 539-553] and radixin [amino acids 558-570], obtained from SignalChem, catalogue #L10-58, reconstituted in 20 mM Tris-HCl at pH 7.5 to a final concentration of 1 mg/mL, assay concentration 20 μM) and recombinant human LRRK2 (catalytic domain only [amino acids 970-2527], GST-tagged, expressed in insect cells, obtained from ThermoFisher Scientific, catalogue #PV4874, 0.35 mg/mL, assay concentration 30 nM) were mixed in assay buffer (20 mM Hepes pH 7.5, 10 mM MgCl2, 1 mM EGTA, 0.02% Brij35, 0.02 mg/ml BSA, 0.1 mM Na3VO4, 2 mM DTT, 1% DMSO). Compounds of interest (in DMSO, serial 3-fold dilution from 10 μM to 0.5 nM) or control (1% DMSO) were dispensed into the kinase reaction mixture by Acoustic technology (Echo550; nanoliter range). After incubation at room temperature for 20 minutes, the kinase reaction was initiated by addition of [^32P]-ATP (Specific activity 10 μCi/μl) and the mixture was incubated at room temperature for 2 hours. The reaction was then stopped by spotting the reaction mixture on strips of phosphocellulose P81 paper. Following washing, the radioactivity of the P81 paper was measured and kinase activity data were expressed as the percent remaining kinase activity in test samples compared to vehicle (dimethyl sulfoxide) reactions. IC50 values and curve fits were obtained using Prism (GraphPad Software).

recombinant human LRRK2 (catalytic domain only [amino acids 970-2527], GST-tagged), sequence (Q5S007 970-2527): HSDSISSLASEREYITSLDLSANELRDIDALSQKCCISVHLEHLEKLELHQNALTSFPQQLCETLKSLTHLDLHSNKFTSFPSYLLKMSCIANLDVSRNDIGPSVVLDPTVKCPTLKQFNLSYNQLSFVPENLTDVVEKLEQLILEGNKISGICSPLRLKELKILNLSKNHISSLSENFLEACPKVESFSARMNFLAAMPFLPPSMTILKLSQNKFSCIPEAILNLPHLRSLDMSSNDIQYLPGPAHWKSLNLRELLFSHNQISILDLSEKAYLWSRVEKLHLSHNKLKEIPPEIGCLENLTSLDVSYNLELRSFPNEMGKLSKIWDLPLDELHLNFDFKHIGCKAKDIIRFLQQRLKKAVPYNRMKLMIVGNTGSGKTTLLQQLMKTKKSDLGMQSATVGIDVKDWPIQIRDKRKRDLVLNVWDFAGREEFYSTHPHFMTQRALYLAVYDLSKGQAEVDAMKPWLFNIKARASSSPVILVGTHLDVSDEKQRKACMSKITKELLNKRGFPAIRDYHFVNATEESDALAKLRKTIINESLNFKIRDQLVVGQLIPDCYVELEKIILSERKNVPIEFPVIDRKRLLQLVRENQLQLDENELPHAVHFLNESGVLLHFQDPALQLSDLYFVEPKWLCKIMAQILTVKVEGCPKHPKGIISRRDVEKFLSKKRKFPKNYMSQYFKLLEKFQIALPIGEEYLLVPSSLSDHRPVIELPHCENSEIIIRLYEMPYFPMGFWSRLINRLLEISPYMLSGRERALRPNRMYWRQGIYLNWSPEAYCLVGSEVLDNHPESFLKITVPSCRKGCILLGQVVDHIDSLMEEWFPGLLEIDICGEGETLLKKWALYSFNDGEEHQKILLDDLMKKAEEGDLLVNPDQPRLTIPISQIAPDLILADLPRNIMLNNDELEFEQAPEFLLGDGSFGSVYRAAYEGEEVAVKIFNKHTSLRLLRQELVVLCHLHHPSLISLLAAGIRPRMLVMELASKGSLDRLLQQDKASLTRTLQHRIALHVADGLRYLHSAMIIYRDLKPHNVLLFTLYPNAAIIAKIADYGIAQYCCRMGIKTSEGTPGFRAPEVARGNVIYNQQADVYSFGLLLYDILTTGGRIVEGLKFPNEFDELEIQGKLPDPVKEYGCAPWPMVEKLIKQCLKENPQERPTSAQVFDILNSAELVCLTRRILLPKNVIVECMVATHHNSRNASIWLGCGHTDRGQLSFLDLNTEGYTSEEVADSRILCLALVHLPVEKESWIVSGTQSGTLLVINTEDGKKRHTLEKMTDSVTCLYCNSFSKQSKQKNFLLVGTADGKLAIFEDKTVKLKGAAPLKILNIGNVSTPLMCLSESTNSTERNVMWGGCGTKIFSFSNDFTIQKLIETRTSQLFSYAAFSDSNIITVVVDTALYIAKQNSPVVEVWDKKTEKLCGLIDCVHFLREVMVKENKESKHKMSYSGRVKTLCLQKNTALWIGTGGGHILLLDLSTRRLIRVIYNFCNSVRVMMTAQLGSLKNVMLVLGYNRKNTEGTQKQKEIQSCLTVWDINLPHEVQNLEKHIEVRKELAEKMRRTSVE

| SMILES | IC50 |
| --- | --- |
| NC1CCCC(COc2ccnc(Nc3ccc(N4CCOCC4)cc3)n2)C1 (stereo not drawn) [Example 11, 4-((3-aminocyclohexyl)methoxy)-N-(4-morpholinophenyl) pyrimidin-2-amine] | 50 to 200 nM |
| NC[C@H]1CC[C@H](COc2ccnc(Nc3ccc(N4CCOCC4)cc3)n2)CC1 [Example 12, 4-(((1R,4R)-4-(aminomethyl)cyclohexyl)methoxy)-N-(4-morpholinophenyl) pyrimidin-2-amine] | < 50 nM |
| COc1cnc(Nc2ccc(N3CCOCC3)cc2)nc1OC[C@H]1CC[C@H](CN)CC1 [Example 13, 4-(((1R,4R)-4-(aminomethyl)cyclohexyl)methoxy)-5-methoxy-N-(4-morpholinophenyl) pyrimidin-2-amine] | < 50 nM |
| NC[C@H]1CC[C@H](COc2nc(Nc3ccc(N4CCOCC4)cc3)ncc2Cl)CC1 [Example 14, 4-(((1R,4R)-4-(aminomethyl)cyclohexyl)methoxy)-5-chloro-N-(4-morpholinophenyl) pyrimidin-2-amine] | < 50 nM |
| N[C@H]1CC[C@@H](COc2ccnc(Nc3ccc(N4CCOCC4)cc3)n2)C1 [Example 15, 4-(((1R,3S)-3-aminocyclopentyl)methoxy)-N-(4-morpholinophenyl) pyrimidin-2-amine] | 50 to 200 nM |
| N[C@H]1CC[C@@H](COc2nc(Nc3ccc(N4CCOCC4)cc3)ncc2Cl)C1 [Example 16, 4-(((1R,3S)-3-aminocyclopentyl)methoxy)-5-chloro-N-(4-morpholinophenyl) pyrimidin-2-amine] | < 50 nM |
| c1cc(OCC2CCNCC2)nc(Nc2ccc(N3CCOCC3)cc2)n1 [Example 17, N-(4-morpholinophenyl)-4-(piperidin-4-ylmethoxy)pyrimidin-2-amine] | 200 to 400 nM |
| Cc1nn(C(C)(C)C#N)cc1Nc1ncc(F)c(OCC2CCNCC2)n1 [Example 18, 2-(4-((5-fluoro-4-(piperidin-4-ylmethoxy)pyrimidin-2-yl)amino)-3-methyl-1H-pyrazol-1-yl)-2-methylpropanenitrile] | 50 to 200 nM |
| Cc1nn(C(C)(C)C#N)cc1Nc1nccc(OCC2(F)CCNCC2)n1 [Example 19, 2-(4-((4-((4-fluoropiperidin-4-yl)methoxy)pyrimidin-2-yl)amino)-3-methyl-1H-pyrazol-1-yl)-2-methylpropanenitrile] | 200 to 400 nM |
| Cc1nn(C(C)(C)C#N)cc1Nc1ncc(Cl)c(OCC2(F)CCNCC2)n1 [Example 20, 2-(4-((5-chloro-4-((4-fluoropiperidin-4-yl)methoxy)pyrimidin-2-yl)amino)-3-methyl-1H-pyrazol-1-yl)-2-methylpropanenitrile] | < 50 nM |
| Cc1nn(C2CC(C#N)C2)cc1Nc1ncc(Cl)c(OCC2(F)CCNCC2)n1 (stereo not drawn) [Example 21, 3-(4-((5-chloro-4-((4-fluoropiperidin-4-yl)methoxy)pyrimidin-2-yl)amino)-3-methyl-1H-pyrazol-1-yl)cyclobutane-1-carbonitrile] | < 50 nM |
| Cc1c(Nc2ncc(Cl)c(OCC3(F)CCNCC3)n2)cnn1C1CC(C#N)C1 (stereo not drawn) [Example 22, 3-(4-((5-chloro-4-((4-fluoropiperidin-4-yl)methoxy)pyrimidin-2-yl)amino)-5-methyl-1H-pyrazol-1-yl)cyclobutane-1-carbonitrile] | < 50 nM |
| C[C@@H]1CN(c2ccc(Nc3ncc(F)c(OCC4(F)CCNCC4)n3)cc2)C[C@H](C)O1 [Example 23, N-(4-((2R,6S)-2,6-dimethylmorpholino)phenyl)-5-fluoro-4-((4-fluoropiperidin-4-yl)methoxy) pyrimidin-2-amine] | < 50 nM |
| Fc1cnc(Nc2ccc(N3CCOCC3)cc2)nc1OCC1(F)CCNCC1 [Example 24, 5-fluoro-4-((4-fluoropiperidin-4-yl)methoxy)-N-(4-morpholinophenyl) pyrimidin-2-amine] | 50 to 200 nM |
| Cc1nn(C(C)(C)C#N)cc1Nc1ncc(F)c(OCC2(F)CCNCC2)n1 [Example 25, 2-(4-((5-fluoro-4-((4-fluoropiperidin-4-yl)methoxy)pyrimidin-2-yl)amino)-3-methyl-1H-pyrazol-1-yl)-2-methylpropanenitrile] | < 50 nM |
| Cc1nn(C2CC(C#N)C2)cc1Nc1ncc(Cl)c(OCC2CCNCC2F)n1 (stereo not drawn) [Example 26, 3-(4-((5-chloro-4-((3-fluoropiperidin-4-yl)methoxy)pyrimidin-2-yl)amino)-3-methyl-1H-pyrazol-1-yl)cyclobutane-1-carbonitrile] | 50 to 200 nM |
| Cc1nn(C(C)(C)C#N)cc1Nc1ncc(Cl)c(OCC2CNC2)n1 [Example 27, 2-(4-((4-(azetidin-3-ylmethoxy)-5-chloropyrimidin-2-yl)amino)-3-methyl-1H-pyrazol-1-yl)-2-methylpropanenitrile] | > 400 nM |

| SMILES | IC50 |
| --- | --- |
| Cc1nn(C(C)(C)C#N)cc1Nc1ncc(Cl)c(OCC2CC3(CNC3)C2)n1 [Example 28, 2-(4-((4-((2-azaspiro[3.3]heptan-6-yl)methoxy)-5-chloropyrimidin-2-yl)amino)-3-methyl-1H-pyrazol-1-yl)-2-methylpropanenitrile] | < 50 nM |
| Fc1cnc(Nc2ccc(N3CCOCC3)cc2)nc1OCC1CCNCC1(F)F (stereo not drawn) [Example 29, 4-((3,3-difluoropiperidin-4-yl)methoxy)-5-fluoro-N-(4-morpholinophenyl) pyrimidin-2-amine] | < 50 nM |
| C[C@@H]1CN(c2ccc(Nc3ncc(F)c(OCC4CCNCC4(F)F)n3)cc2)C[C@H](C)O1 (stereo partly drawn) [Example 30, 4-((3,3-difluoropiperidin-4-yl)methoxy)-N-(4-((2S,6R)-2,6-dimethylmorpholino)phenyl)-5-fluoropyrimidin-2-amine] | < 50 nM |
| CN[C@H]1CC[C@H](COc2ccnc(Nc3ccc(N4CCOCC4)cc3)n2)CC1 [Example 31, 4-(((1R,4R)-4-(methylamino)cyclo-hexyl)methoxy)-N-(4-morpholinophenyl) pyrimidin-2-amine] | < 50 nM |
| CN[C@H]1CC[C@H](COc2ccnc(Nc3cn(C(C)(C)C#N)nc3C)n2)CC1 [Example 32, 2-methyl-2-(3-methyl-4-((4-(((1R,4R)-4-(methylamino)cyclo-hexyl)methoxy)pyrimidin-2-yl)amino)-1H-pyrazol-1-yl)propanenitrile] | < 50 nM |
| CN[C@H]1CC[C@H](COc2ccnc(Nc3cnn(C(C)C)c3)n2)CC1 [Example 33] | > 400 nM |
| CN[C@H]1CC[C@H](COc2ccnc(Nc3cc(F)c(C(=O)N4CCOCC4)cc3OC)n2)CC1 [Example 34, (2-fluoro-5-methoxy-4-((4-(((1R,4R)-4-(methylamino)cyclo-hexyl)methoxy)py-rimidin-2-yl)amino)phenyl) (morpholino) methanone] | 50 to 200 nM |
| CN[C@H]1CC[C@H](COc2nc(Nc3ccc(N4CCOCC4)cc3)ncc2OC)CC1 [Example 35, 5-methoxy-4-(((1R,4R)-4-(methylamino)cyclo-hexyl)methoxy)-N-(4-morpholinophenyl) pyrimidin-2-amine] | < 50 nM |
| CN[C@H]1CC[C@H](COc2nc(Nc3cc(F)c(C(=O)N4CCOCC4)cc3OC)ncc2OC)CC1 [Example 36] | < 50 nM |
| CN[C@H]1CC[C@H](COc2nc(Nc3cn(C(C)(C)C#N)nc3C)ncc2OC)CC1 [Example 37, 2-(4-((5-methoxy-4-(((1R,4R)-4-(methylamino)cyclo-hexyl)methoxy)py-rimidin-2-yl)amino)-3-methyl-1H-pyrazol-1-yl)-2-methylpropanenitrile] | < 50 nM |
| CN[C@H]1CC[C@H](COc2nc(Nc3ccc(N4CCOCC4)cc3)ncc2Cl)CC1 [Example 38, 5-chloro-4-(((1R,4R)-4-(methylamino)cyclo-hexyl)methoxy)-N-(4-morpholinophenyl) pyrimidin-2-amine] | < 50 nM |
| CN[C@H]1CC[C@H](COc2nc(Nc3cn(C(C)(C)C#N)nc3C)ncc2Cl)CC1 [Example 39, 2-(4-((5-chloro-4-(((1R,4R)-4-(methylamino)cyclo-hexyl)methoxy)py-rimidin-2-yl)amino)-3-methyl-1H-pyrazol-1-yl)-2-methylpropanenitrile] | < 50 nM |
| CN[C@H]1CC[C@H](COc2nc(Nc3cn(C4CC(C#N)C4)nc3C)ncc2Cl)CC1 (stereo partly drawn) [Example 40, 3-(4-((5-chloro-4-(((1R,4R)-4-(methylamino)cyclo-hexyl)methoxy)py-rimidin-2-yl)amino)-3-methyl-1H-pyrazol-1-yl)cyclobutane-1-carbonitrile] | < 50 nM |
| CN[C@H]1CC[C@H](COc2nc(Nc3ccc(N4CCOCC4)cc3)ncc2F)CC1 [Example 42, 5-fluoro-4-(((1R,4R)-4-(methylamino)cyclo-hexyl)methoxy)-N-(4-morpholinophenyl) pyrimidin-2-amine] | < 50 nM |
| CN[C@H]1CC[C@H](COc2nc(Nc3cn(C(C)(C)C#N)nc3C)ncc2F)CC1 [Example 43, 2-(4-((5-fluoro-4-(((1R,4R)-4-(methylamino)cyclo-hexyl)methoxy)py-rimidin-2-yl)amino)-3-methyl-1H-pyrazol-1-yl)-2-methylpropanenitrile] | < 50 nM |
| CN[C@H]1CC[C@H](COc2nc(Nc3cn(C(C)(C)C#N)nc3C)ncc2C)CC1 [Example 44, 2-methyl-2-(3-methyl-4-((5-methyl-4-(((1R,4R)-4-(methylamino)cyclo-hexyl)methoxy)py-rimidin-2-yl)amino)-1H-pyrazol-1-yl)propanenitrile] | < 50 nM |
